Data: patent publication US20240133884A1, “COMPOSITIONS AND METHODS FOR DETECTING TRYPANOSOMA CRUZI INFECTION” (University of Georgia Research Foundation, Inc., priority 2022, published 2024)

How the values were obtained:
Standard Ames study = assay type: cell-based
cytochrome P450 enzymes = experiment: Inhibition of representative cytochrome P450 enzymes; assay type: in vitro ADME; details: 10 uM
[1] = system: T. cruzi serine carboxypeptidase (CBP); experiment: Sensitivity of serine carboxypeptidase (CBP) knockout T. cruzi amastigotes; assay type: cell-based, Trypanosoma cruzi
Method: The in vitro anti-T. cruzi amastiogote activity assay was performed and optimized based on the protocol described previously (Canavaci, et al., PLoS neglected tropical diseases 4, e740 (2010)). The change in tdTomato fluorescence intensity was determined as a measurement of growth over 72 hours of culture. For assaying drug effects on extracellular amastigotes, trypomastigotes were collected from infected Vero cell cultures and converted in acidic media as previously described (Tomlinson, et al., Parasitology 110 (Pt 5), 547-554 (1995)). Amastigotes (50,000/well) were incubated with 2-fold serial dilutions of compounds for 48 hours. The ATP production was used as an indication of growth in this case, and was measured by ATPlite Luminescence ATP Detection Assay System (PerkinElmer). Both fluorescence and luminescence were read using a BioTek Synergy Hybrid Multi-Mode reader equipped with the software Gene5 v 2.0 (BioTek). […]
The CBPs knockout was produced using ribonucleoprotein (RNP) complexes as previously described (Soares Medeiros, et al., mBio 8 (2017)). Briefly, Brazil tdTomato strain epimastigotes were electroporated with RNP complexes containing SaCas9 and an sgRNA targeting CBP gene TcBrA4_0048170, plus a repair template containing stop codons in all three reading frames and the M13 sequence for use as a PCR anchor. […]

[2] = system: mammalian enzymes, receptors and ion channels; experiment: Safety pharmacology: affinity for a broad array of mammalian enzymes, receptors and ion channels; assay type: binding
[3] = High dose 7-day toxicology studies in rats; assay type: in vivo; details: for dose proportionality of exposure: high dose 7-day toxicology studies, oral; for NOAEL dose: allometric scaling from rats
T. cruzi (Brazil strain) [4] = experiment: In vivo killing time assay: mouse footpads, Luciferase-expressing T. cruzi; parameters: species or system Trypanosoma cruzi; details: mice, single oral dose 25 mg/kg (FIG. 1C)
Method: Cure assays: Male or female C57BL/6 mice were intraperitoneally infected with 10^4 trypomastigotes of the Brazil strain. Mouse infection was confirmed at 25-30 dpi by detection of CD8^+ T cells specific against the T. cruzi TSKb20 peptide in blood (Martin, et al., PLoS pathogens 2, e77 (2006)). Compounds resuspended in 1% carboxymethyl cellulose and 0.1% Tween 80, were administered daily by gavage at the specified concentrations. In order to optimally detect persistent infection, immune responses in the mice were suppressed by intraperitoneal injection of four doses of cyclophosphamide every 2-3 days (200 mg/kg/day), beginning one week after the end of therapeutic treatment. At the end of the immunosuppression regimen, peripheral blood was checked under light microscope for parasites and cultured in LDNT media (Bustamante, et al., The Journal of infectious diseases 209, 150-162 (2014)). […] In vivo killing time assays: C57BL/6 mice were infected with 2.5×10^5 Luciferase-expressing T. cruzi (Brazil strain) in the foot pads, and two days later one oral dose of AN14353 (25 mg/kg) was administered. The bioluminescent signal in the feet after i.p. injection of D-luciferin (PerkinElmer; 250 mg/kg) was measured in a Lumina II IVIS imager (PerkinElmer). […]

[5] = Pharmacokinetics in mice (intravenous and oral); assay type: in vivo; details: in words
T. cruzi (Brazil strain) [6] = experiment: Mouse cure assays (daily oral treatment, cyclophosphamide immunosuppression, hemoculture, skeletal muscle qPCR); assay type: in vivo, Trypanosoma cruzi
Method: Cure assays: Male or female C57BL/6 mice were intraperitoneally infected with 10^4 trypomastigotes of the Brazil strain. Mouse infection was confirmed at 25-30 dpi by detection of CD8^+ T cells specific against the T. cruzi TSKb20 peptide in blood (Martin, et al., PLoS pathogens 2, e77 (2006)). Compounds resuspended in 1% carboxymethyl cellulose and 0.1% Tween 80, were administered daily by gavage at the specified concentrations. In order to optimally detect persistent infection, immune responses in the mice were suppressed by intraperitoneal injection of four doses of cyclophosphamide every 2-3 days (200 mg/kg/day), beginning one week after the end of therapeutic treatment. At the end of the immunosuppression regimen, peripheral blood was checked under light microscope for parasites and cultured in LDNT media (Bustamante, et al., The Journal of infectious diseases 209, 150-162 (2014)). […] In vivo killing time assays: C57BL/6 mice were infected with 2.5×10^5 Luciferase-expressing T. cruzi (Brazil strain) in the foot pads, and two days later one oral dose of AN14353 (25 mg/kg) was administered. The bioluminescent signal in the feet after i.p. injection of D-luciferin (PerkinElmer; 250 mg/kg) was measured in a Lumina II IVIS imager (PerkinElmer). Low dose short treatment: Hairless mice (SKH-1) were infected intraperitoneally with 5×10^4 Luciferase expressing T. cruzi (Colombiana strain) and orally treated from 12 to 22 dpi with 1, 2.5 or 5 mg/kg of AN16109 or AN15368. Bioluminiscence signal of the whole body was measure after D-luciferin injection in a Lumina II IVIS in vivo imager equipped with the Living Imaging 4.0 software (PerkinElmer).

T. cruzi (CL strain) = experiment: Rapid in vivo assay: mouse footpad infection with tdTomato-expressing T. cruzi, single oral dose; parameters: species or system Trypanosoma cruzi; details: mice, reduced doses (FIG. 1B)
Method: Fluorescent intensity of the feet was measured at 2 dpi before compound administration and at 4 dpi in the Maestro in vivo imaging system equipped with the software Maestro 2.1.0 (CRi) as previously described (Fleau, et al., J Med Chem 62, 10362-10375 (2019)). The proliferation index was estimated as PI=[(T4d−T2d)/(mUnt4d−mUnt2d)]*100; where T4d and T2d are the fluorescence intensity of the feet of the treated animals at days 4 and 2 post-infection respectively; mUnt4d and mUnt2d are the average fluorescence intensity of the feet of the untreated animals at 4 and 2 dpi respectively.

| Structure (SMILES) | genotoxicity, Ames (Standard Ames study) | inhibition of representative cytochrome P450 enzymes (cytochrome P450 enzymes) | decrease of in vitro sensitivity of T. cruzi amastigotes after disruption of serine carboxypeptidases ([1]; CBP KO vs wild type (FIG. 2C)) | affinity for a broad array of mammalian enzymes, receptors and ion channels [2] | dose proportionality of exposure [3] | in vivo trypanocidal activity (bioluminescence of feet over 72 hrs) (T. cruzi (Brazil strain) [4]) | absorption (dose proportionality of exposure in vivo) [5] | resolution of infections in immunodeficient mice (T. cruzi (Brazil strain) [6]; IFN-gamma deficient mice, 25 mg/kg, 40 days (FIG. 1E)) | resolution of established T. cruzi infections (T. cruzi (Brazil strain) [6]; wild-type mice, 25 mg/kg, 40 day treatment (FIG. 1D)) | reduction of established focal footpad infection by a single oral dose (T. cruzi (CL strain)) | increased resistance after disruption of CBPs ([1]; intracellular amastigotes, TcCBP KO vs WT (FIG. 5E)) | NOAEL dose ([3]; humans) | NOAEL dose ([3]; monkeys) | NOAEL ([3]; rats) | drug accumulation between the first and seventh days ([3]; rats) | total plasma exposure (AUC0-24 h) ([3]; rats, 120 mg/kg/day) | effects on hematology and clinical chemistry ([3]; rats, 120 mg/kg/day or lower) | effects on hematology and clinical chemistry ([3]; rats, 150 mg/kg) | cure of T. cruzi infection in mice (T. cruzi (Brazil strain) [6]; in words (FIGS. 3A-3E)) | minimal efficacious dose (T. cruzi (Brazil strain) [6]; mice (FIG. 3E)) |
| --- | --- | --- | --- | --- | --- | --- | --- | --- | --- | --- | --- | --- | --- | --- | --- | --- | --- | --- | --- | --- |
| Cc1c(C(=O)N[C@H](C(=O)OCc2ccc(F)c(F)c2)C(C)C)ccc2c1B(O)OC2 [AN14353] | non-genotoxic | did not demonstrate significant inhibition | up to 100 fold | little to no affinity | non-dose proportional exposure | rapid in vivo trypanocidal activity | solubility-limited absorption | consistently resolve | consistently resolve established T. cruzi infections | activity at reduced doses | – | – | – | – | – | – | – | – | – | – |
| Cc1c(C(=O)N[C@H](C(=O)OCC2CCOCC2)C(C)C)ccc2c1B(O)OC2 [AN15368] | non-genotoxic | did not demonstrate significant inhibition | – | little to no affinity | good dose proportional exposure | – | – | – | – | – | 1000 × | 19.4 mg/kg | 60.5 mg/kg | 120 mg/kg | no evidence of drug accumulation | approximately 30,000 ng*hr/mL | none | modest effects | cures T. cruzi infection in mice | 2.5 mg/kg |
